Results published in patent US11091781B2, “Carbon fixation systems and methods” (priority 2015, dated 2021).

What was measured:
R. eutropha [1] = experiment: Spot assay of R. eutropha in the presence of Co^2+; type: cell-based, Ralstonia eutropha; conditions: estimated by comparison at 1/100 dilution, FIG. 18, read-out: half maximal inhibitory concentration, IC50 (concentration of Co^2+ toxic to R. eutropha)
Protocol: (§1) The procedure for spot assays was performed by diluting 100 μL of culture grown under different conditions by 1:10 in fresh minimal medium, which was vortexed. Three to four serial 10-fold dilutions were made and 2 μL of each dilution was spotted on rich broth agar plates and allowed to dry. Plates were typically grown for 2 days at 30° C. before imaging. The half maximal inhibitory concentration (IC50) was estimated based on the comparison at 1/100 dilution. The areas of colonies at certain conditions were then compared with that of control samples.
FIG. 17 presents, cyclic voltammograms of Co^2+ in the phosphate buffer (pH=7), a pre-wave to the catalytic water-splitting current corresponds to the oxidation of Co^2+ to Co^3+, which drives deposition of the catalyst. […] As noted previously, the self-healing property of CoPi alloy is derived from this interplay of the potential at which OER occurs vs. the potential at which the catalyst deposits. In concert, the Co—P and CoPi catalysts maintain extremely low concentrations of Co^2+ in solution through activity derived from the self-healing process. Inductively coupled plasma mass spectrometry (ICP-MS) analysis of a Co-P|CoPi catalysts system (Eappl=2.2 V) confirm that sub-μM levels of Co^2+ are present in solution after 24 h. […]

R. eutropha [2] = type: cell-based, Ralstonia eutropha; conditions: spot assay at different isopropanol concentrations, FIG. 25
Protocol: as §1
FIG. 25 is a photograph of cell cultures taken for different isopropanol concentration.

[3] = tested on: H16 and ROS-resistant BC4 strains of R. eutropha; experiment: Spot assay of ROS tolerance with paraquat as ROS-inducer; type: cell-based, Ralstonia eutropha; conditions: BC4 vs wild-type H16, FIG. 26
Protocol: as §1
A ROS-resistant variant of R. eutropha, evolved from a reactor including a stainless steel CoPi water-splitting electrode pair after 11 consecutive days of operation at an applied voltage potential of 2.3 V with a H2O2 generation rate of ˜0.6 μM/min. […] However, there was minimal difference noted in ηelec for the current reactor systems using the Co-P|CoPi electrode pairs, confirming minimal concentrations of ROS in the reactors. Of course, it should be understood that BC4 may be used in any reactor system, and may also be beneficial for use in helping systems achieve a high ηelec where ROS are present in larger concentrations.

[4] = target: membrane-bound hydrogenases in R. eutropha (Cupriavidus necator, UniProt P31891); conditions: H2 as substrate; cited from earlier work
membrane-bound hydrogenases in R. eutropha, sequence (P31891 1-603 limits assumed): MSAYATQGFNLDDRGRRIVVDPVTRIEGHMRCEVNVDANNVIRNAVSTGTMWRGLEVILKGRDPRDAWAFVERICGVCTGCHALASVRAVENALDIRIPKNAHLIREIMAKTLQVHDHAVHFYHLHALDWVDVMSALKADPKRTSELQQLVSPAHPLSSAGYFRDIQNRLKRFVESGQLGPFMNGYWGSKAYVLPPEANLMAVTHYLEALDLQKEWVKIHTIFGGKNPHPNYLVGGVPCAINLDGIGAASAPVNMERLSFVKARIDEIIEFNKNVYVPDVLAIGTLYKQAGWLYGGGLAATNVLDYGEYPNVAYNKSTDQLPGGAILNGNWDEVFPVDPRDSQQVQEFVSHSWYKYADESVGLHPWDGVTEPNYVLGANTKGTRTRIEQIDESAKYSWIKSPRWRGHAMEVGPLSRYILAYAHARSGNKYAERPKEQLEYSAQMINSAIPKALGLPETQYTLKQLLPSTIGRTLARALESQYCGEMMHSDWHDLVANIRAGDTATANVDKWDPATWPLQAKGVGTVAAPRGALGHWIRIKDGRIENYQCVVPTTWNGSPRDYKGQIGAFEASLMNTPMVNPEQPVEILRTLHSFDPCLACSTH
membrane-bound hydrogenases in R. eutropha, sequence (P31892 44-360 partner): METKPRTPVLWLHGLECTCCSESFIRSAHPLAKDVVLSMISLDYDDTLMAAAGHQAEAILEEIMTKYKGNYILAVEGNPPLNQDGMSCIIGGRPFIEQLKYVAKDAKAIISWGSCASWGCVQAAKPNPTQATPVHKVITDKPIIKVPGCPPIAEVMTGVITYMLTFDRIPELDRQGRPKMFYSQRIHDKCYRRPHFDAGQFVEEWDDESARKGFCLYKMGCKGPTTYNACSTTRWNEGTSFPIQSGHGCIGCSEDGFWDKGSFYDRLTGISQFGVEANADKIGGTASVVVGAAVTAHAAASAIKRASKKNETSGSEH

[Co+2] [Co^2+] showed an IC50 (R. eutropha [1]) of ~25 µM.

With CC(C)O [isopropanol] the “tolerance of R. eutropha towards isopropanol” value (R. eutropha [2]) was “demonstrates tolerance”.

With C[n+]1ccc(-c2cc[n+](C)cc2)cc1 [paraquat] the “IC50 of paraquat for BC4 compared with wild type” value [3] was “almost one order of magnitude higher than that of wild type”.

In the case of [HH] [H2, hydrogen], the Michaelis constant [4] is given as “about 6 μM”.
